From patent US9474730B2, “Methods and compositions for use with K-ras mediated disorders” (Board of Regents of the University of Texas System, priority 2012, dated 2016)
Counter-ions that a name gives are not always drawn.

Legend:
[1] = tested on: BHK cells expressing Myc-B-Raf V600E; assay: Signaling in cells expressing constitutively active BRaf, Western blotting; format: cell-based, hamster; details: 6 μg/mL, 48 h, serum starved BHK cells
Description: FIG. 6: Illustrates that fendiline HCl inhibition occurs at the level of Ras: Whole cell lysates from serum starved BHK cells expressing vector control, FLAG-C-Raf-DD-CAAX or Myc-B-Raf V600E treated with vehicle or fendiline HCl (6 μg/mL) for 48 h were analyzed by quantitative Western blotting. Representative Western blots of c-Raf, pMEK, pERK and Actin (loading control) are shown. Data is shown as mean±SEM from 3-4 independent experiments. Statistical significance was calculated using one way ANOVA and Student's T-test. (*=p<0.05), wherein experimentation was performed in accordance with principles described herein;
(§1) Preparation of whole-cell lysates: cells were lysed in Buffer B (50 mM Tris [pH 7.5], 75 mM NaCl, 25 mM NaF, 5 mM MgCl2, 5 mM EGTA, 1 mM dithiothreitol, 100 μM NaVO4, 1% Nonidet P-40 plus protease inhibitors). Cellular fractionation: cells were incubated in Buffer A (10 mm Tris-HCl, pH 7.5, 25 mm NaF, 5 mm MgCl2, 1 mm EGTA, 1 mm dithiothreitol, 100 μm NaVO4 plus protease inhibitors) for 30 minutes on ice and lysed by passing through a 27 G needle 30 times. The post nuclear supernatant was centrifuged at 100,000 g for 30 minutes and the membrane pellet was resuspended in Buffer A containing 1% Triton X-100.
(§2) Quantification of intensities was performed using FluorChemQ software.

[2] = tested on: MDCK and BHK cells expressing oncogenic mutant H-RasG12V; assay: Signaling in cells expressing oncogenic H-RasG12V, Western blotting; format: cell-based, canine (MDCK), hamster (BHK); details: to the similar extent as in K-rasG12V cells, 6 μg/mL, 48 h
Description: (§3) FIG. 7: Illustrates that H-rasG12V signals through endogenous K-ras: BHK cells stably expressing H-rasG12V were treated with vehicle or fendiline HCl (6 μg/mL) for 48 h. (A) ppMEK and ppERK in soluble protein fraction and pAkt levels in membrane protein fraction were measured by quantitative Western blotting. A representative blots are shown. (B) BHK cells stably expressing H-rasG12V were transfected with K-ras siRNA encoding plasmid. 24 h after transfection, cells were treated with vehicle or fendiline HCl (6 μg/mL) for a further 48 h. Whole cell lysates were prepared from serum starved cells and analyzed by quantitative Western blotting. Representative Western blots are shown. Data is shown as mean±SEM from 6 independent experiments. […] (*=p<0.05), and experimentation was performed in accordance with principles described herein;
as §1, §2

[3] = tested on: Raf kinase activity in BHK cells stably expressing K-rasG12V; assay: Raf kinase assay on membrane fractions of treated cells (coupled MEK/ERK assay); format: cell-based, hamster; details: 6 μg/mL, 48 h; phosphorylation of recombinant ERK substrate
Description: (§4) FIG. 5: Illustrates that fendiline HCl inhibits Raf kinase activity and signaling downstream of oncogenic K-ras: BHK cells stably expressing K-rasG12V were treated with vehicle or fendiline HCl (6 μg/mL) for 48 h. (A) Raf kinase activity in membrane fractions prepared from the cells was measured in a coupled […] kinase assay. Data is shown as mean±SEM from 3 independent experiments. (B) ppMEK and ppERK in soluble protein fraction and pAkt levels in membrane protein fraction were measured by quantitative Western blotting. Actin and Akt were used as loading controls for soluble and membrane fractions, respectively. A representative blots are shown. Data is shown as mean±SEM from 3-4 independent experiments. Statistical significance was calculated using one way ANOVA and Student's T-test. (*=p<0.05), wherein experimentation was performed in accordance with principles described herein;
Membrane (P100) fractions were prepared from BHK or MDCK cells were dissolved in Buffer A containing 1% TritonX100. Solubilized P100 fractions were incubated with combinations of recombinant MEK and ERK in the presence of Mg^2+-ATP (40 mM and 0.5 mM, respectively) After 30 min at 30° C. with vigorous shaking, the pMEK and ppERK levels were determined by quantitative Western blotting.

[4] = molecular target: T1, GFP-K-rasG12V in MDCK or BHK cells (Homo sapiens, UniProt P01116, G12V); assay: Confocal fluorescence microscopy of GFP-tagged full length constitutively active Ras (G12V); format: cell-based, canine (MDCK), hamster (BHK); details: 48 h
T1 construct: MDCK and BHK cells expressing GFP-tagged full length constitutively active Ras (G12V) proteins; expressed in transfected cells
Description: FIG. 2: Illustrates that fendiline HCl mislocalizes GFP-K-rasG12V but not GFP-H-rasG12V: (A) MDCK or BHK [Baby Hamster Kidney] cells expressing GFP-K-rasG12V or GFP-H-rasG12V were grown on cover slips, treated with vehicle or fendiline HCl (4 μg/mL for MDCK and 6 μg/mL for BHK) for 48 h and fixed with paraformaldehyde. Cells were imaged using a confocal microscope. (B) BHK cells expressing GFP-K-rasG12V or GFP-H-rasG12V (green) were treated with vehicle or fendiline HCl (6 μg/mL) for 48 h. Following treatment, cells were fixed and immuno-labeled with antibodies against PDI (ER marker-red) or p58 (golgi marker-red). Colocalization between GFP and the respective marker protein is shown in yellow. Shown are representative images from 3 independent experiments wherein experimentation was performed in accordance with principles described herein;
Cells were further analyzed using fluorescence microscopy, where cells were grown on coverslips, treated with 1% vehicle (DMSO) or varying concentrations of selected compounds for 48 h, and fixed with 4% paraformaldehyde. The coverslips were mounted in Mowiol® and visualized by confocal microscopy (Nikon A1) using a 60× objective. The cells were immuno-staining, where cells were fixed, permeabilized in 0.1% Triton in PBS for 30 min, and blocked with 0.2% bovine serum albumin and 0.2% fish skin gelatin in PBS for 30 min. […]

[5] = tested on: BHK cells stably expressing K-rasG12V; assay: Signaling downstream of oncogenic K-ras by quantitative Western blotting; format: cell-based, hamster; details: 6 μg/mL, 48 h, K-rasG12V BHK cells
Description: as §4, §1, §2

[6] = tested on: BHK cells expressing constitutively active H-ras with endogenous K-ras knocked down; assay: K-ras knockdown (siRNA) in H-rasG12V cells, pERK Western blotting; format: cell-based, hamster; details: then 6 μg/mL for 48 h
Description: as §3
BHK cells expressing GFP-tagged H-rasG12V were transfected with the ON-Target K-ras specific siRNA pool or non-targeting control siRNA pool (Dharmacon, Inc., Lafayette, Colo., USA) according to manufacturer's protocol. At 24 h post-transfection, the cells were treated with vehicle or Fendiline HCl; 48 h later (72 h total knockdown time) the cells were lysed for Western blot analysis. […]
as §2

CC(NCCC(c1ccccc1)c1ccccc1)c1ccccc1 (centres unmarked) [fendiline HCl]
signaling downstream of constitutively active BRaf [1]: inhibited signaling downstream of constitutively active BRaf
pAkt levels [2]: decreased
pERK levels [2]: decreased
pMEK levels [2]: decreased
reduction of the amount of active Raf compared to vehicle-treated control [3]: approximately 60%
localization of GFP-K-rasG12V relative to ER (PDI) and Golgi (p58) markers ([4]; BHK cells, 6 μg/mL, immunofluorescence): partially mislocalizes to the ER and golgi
inhibition of plasma membrane localization, K isoform compared to H and N ([4]; GFP-tagged full length Ras (G12V), 4 μg/mL for MDCK and 6 μg/mL for BHK): more potent inhibitor of plasma membrane localization of the K isoform as compared to H (FIG. 2A) and N
pAkt levels ([5]; membrane fraction): decreases the pAkt levels, although not statistically significant
cellular levels of pERK ([5]; vs vehicle): significantly reduces
cellular levels of pMEK ([5]; vs vehicle): significantly reduces
pERK levels after K-ras knockdown [6]: did not further reduce pERK levels
